Test [1] deals with PVS tagging of cysteine thiol groups of cellular proteins in HeLa cells. Kind of test: Competition of PVS tagging in HeLa cells or lysate (anti-PVS immunoblot). The format is cell-based. The procedure:
HeLa cells were treated with 10 μM to 1 mM PVS in PBS for 1 h or with 0.1-2 mM PVD in PBS for 30 min. In the case of PVS and PVD combined treatment, HeLa cells were pretreated with PVD for 30 min and then treated with PVS in PBS for 1 h.
Based on the observations that PVS and PVSN were PTP covalent inhibitors (22), we attempted to develop an antiserum against PVS and use the antiserum in the identification of PVS-tagged proteins through immunoblotting and immunoprecipitation. First, we confirmed the inhibitory activity of PVS on PTPs and tested the efficacy of our antiserum against PVS. […] Higher concentrations of PVS elicited higher levels of PVS modification, but with the same pattern. […] Specificity of the anti-PVS was further tested by the combined treatment of ethyl vinyl sulfone (EVS) and PVS. HeLa cells were pretreated with 10 μM to 1 mM EVS in PBS for 30 min and then treated with 100 μM PVS in PBS for 1 h.
Pervanadate is an irreversible PTP inhibitor by oxidizing the active-site cysteine thiol of PTPs (24). If both PVS and pervanadate target the same thiol group, pretreatment of pervanadate would hinder the tagging of PVS. […] Next, we tested the competition of BVT 948 and NSC 95397 on the tagging of PVS. BVT 948 (25) and NSC 95397 (26) are PTP and dual specificity phosphatase inhibitors, respectively. Treatment of both drugs elicited increased amounts of tyrosine phosphorylation, albeit with different sensitivity and pattern.
HeLa cells were cultured to about 90% confluence on a 10-cm dish in DMEM with 10% FBS (5×10^6~1×10^7 cells). HeLa cells were lysed by repeated pipetting with 900 μL 2% Triton X-100 in 20 mM Tris-HCl, pH 8.0. The lysate was centrifuged at 12,000×g for 10 min and the supernatant was aliquoted (200 μL) and treated with PVS, PVSN, or Bay 11-7082 of various concentrations at room temperature for 5 to 60 min. The stocks of 1000×PVS, 1000×PVSN, and 1000× Bay 11-7082 were prepared in DMSO. The reaction was stopped by adding 1,4-dithioerythreitol to a final concentration of 10 mM. The reaction solution was then mixed with equal volume of 2× SDS sample buffer. Ten μL sample solution was used for SDS gel electrophoresis and immunoblotting. The signal of GAPDH was used to adjust the amount of protein loading.
Background: In western blotting, separated proteins are transferred to a membrane and probed.

Another test relates to recombinant RRM1 or RRM2. The test can be described thus: Competition of afatinib labeling of recombinant RNR subunits. Particulars: pretreatment 2.5 mM, then 10 μM afatinib.
In test [2] the target is T1, Recombinant glutathione reductase (Homo sapiens, UniProt P00390).
T1 construct: purchased BioVision
T1 sequence (P00390 44-522): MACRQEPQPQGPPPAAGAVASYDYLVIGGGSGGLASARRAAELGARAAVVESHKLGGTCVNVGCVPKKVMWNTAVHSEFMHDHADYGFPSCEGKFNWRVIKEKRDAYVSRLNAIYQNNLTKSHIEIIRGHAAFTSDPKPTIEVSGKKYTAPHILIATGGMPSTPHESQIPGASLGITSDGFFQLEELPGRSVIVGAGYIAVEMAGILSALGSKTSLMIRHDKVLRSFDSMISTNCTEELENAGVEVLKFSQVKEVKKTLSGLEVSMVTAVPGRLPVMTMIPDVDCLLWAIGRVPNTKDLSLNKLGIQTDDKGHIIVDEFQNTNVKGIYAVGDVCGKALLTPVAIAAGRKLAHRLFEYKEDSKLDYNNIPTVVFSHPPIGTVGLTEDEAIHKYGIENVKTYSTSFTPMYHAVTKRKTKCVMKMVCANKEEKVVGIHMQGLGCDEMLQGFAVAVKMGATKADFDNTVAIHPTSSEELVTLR
Kind of test: In vitro enzyme activity of glutathione reductase. The format is biochemical. The procedure:
Recombinant glutathione reductase was first treated with NADPH and 10 or 50 μM PVS, PVSN or Bay 11-7082 for 1 h at room temperature. In the control group, recombinant glutathione reductase was treated with NADPH and the same volume of DMSO used in the treatment of drugs in the assay buffer. Following the addition of oxidized glutathione, the decrease in absorbance at A340 was monitored over 10 min. Results were presented as mean of three independent experiments plus and minus standard deviation.
The assay was carried out according to the protocol provided by BioVision Inc. (Catalog number K761-200). Recombinant glutathione reductase was first treated with NADPH and 10 μM or 50 μM PVS, PVSN or Bay11-7082 for 30 min at room temperature. In the control group, recombinant glutathione reductase was treated with NADPH and the same volume of DMSO used in the treatment of drugs in the assay buffer. Following the addition of oxidized glutathione, the decrease in absorbance at A340 was monitored over 10 min.
Based on the proteomic results, we first examined whether PVS, PVSN and Bay 11-7082 affected the activity of glutathione reductase (FIG. 5). All compounds were ineffective in inhibiting glutathione reductase at 10 μM. However, PVSN and Bay 11-7082 at 50 μM inhibited the activity of glutathione reductase by 61% and 74%, respectively. […]

The subject of another test is PTPs in HeLa cells. The test can be described thus: Phosphotyrosine levels in HeLa cells (PTP inhibition, immunoblot). The format is cell-based. The conditions noted are these: 10 and 100 μM for 5 min. The procedure: FIG. 4 describes use of anti-PVS in recognition of PVSN and Bay 11-7082 adducts.
We next examined whether anti-PVS antiserum can be used in detection of target proteins probed by PVS analogs such as PVSN and Bay 11-7082. Treatment of PVSN and Bay 11-7082 at concentrations of 10 and 100 μM for 5 min increased the levels of phosphotyrosine modification in HeLa cells, especially Bay 11-7082 at 100 μM (FIG. 4) confirming their effects in PTP inhibition. PVSN-tagged proteins were abundantly recognized by anti-PVS antiserum (FIG. 5A), but only few Bay 11-7082-tagged proteins were detected by the anti-PVS antiserum (FIG. 5B). Therefore, anti-PVS antiserum can be readily used in the detection of proteins modified by PVS and PVSN.

Test [3] concerns protein asymmetric dimethylarginine (ADMA) in HeLa cells. Kind of test: Protein ADMA levels in cultured HeLa cells (immunoblot). The format is cell-based. The conditions noted are these: for levels of protein ADMA in cell culture: 50 μM, short-term treatment. As to the method:
Each group contained the same volume of DMSO and ethanol. After wash with TBS for three times, the cells were lysed with 900 μL RIPA lysis buffer and centrifuged to pellet down the debris. The supernatant was then transferred to a new tube and mixed with equal volume of 2×SDS sample buffer. Ten μL sample solution was for electrophoresis and immunoblotting. The signal of anti-GAPDH was used to adjust the amount of protein loading.
Since Bay 11-7082 inhibited PRMT1 activity in an in vitro assay, we then tested the inhibitory activity of this compound in cultured HeLa cells. The levels of ADMA are regulated by both methylation and demethylation. […] Some proteins of ADMA persisted several days in the absence of PRMT1. […] We also used histone H4R3 asymmetric dimethylation antibody as one kind of pan ADMA antibody (right panel, Supplementary FIG. 5). However, we noticed that the ADMA signals of one or two proteins increased in this experiment possibly due to the compensation activity caused by other PRMT family proteins (39) or disturbance of cell cycle progression affected by other target proteins of Bay 11-7082 (40). It is of interest to note that phenylsulfonyl structure present in Bay 11-7082 is also found in a PRMT1 inhibitor, C-7280948 (41), indicating the Bay 11-7082 could be a good lead compound for developing PRMT1 inhibitors. […] We included another Bay 11-7082 analog, Bay 11-7085 for comparison (42, 43).

In another test the target is T2, recombinant PRMT1 (Homo sapiens, UniProt Q99873).
T2 construct: purchased BPS Bioscience
The test can be described thus: In vitro PRMT1 activity assay (histone H4 methylation, immunoblot). The format is biochemical. Particulars: for concentration that caused significant inhibition of methylation of histone H4: recombinant PRMT1, histone H4, S-adenosylmethionine; for pIC50: three-point curve fit (5, 10, 100 μM), an estimation, read-out: IC50 (PRMT1, histone H4 as substrate).

A further test concerns PC-9 cells. The test can be described thus: Afatinib labeling of proteins in PC-9 cells (anti-afatinib immunoblot). Particulars: 1 h.

pIC50: −log10 of the molar value.

T2 sequence (Q99873 whole entry): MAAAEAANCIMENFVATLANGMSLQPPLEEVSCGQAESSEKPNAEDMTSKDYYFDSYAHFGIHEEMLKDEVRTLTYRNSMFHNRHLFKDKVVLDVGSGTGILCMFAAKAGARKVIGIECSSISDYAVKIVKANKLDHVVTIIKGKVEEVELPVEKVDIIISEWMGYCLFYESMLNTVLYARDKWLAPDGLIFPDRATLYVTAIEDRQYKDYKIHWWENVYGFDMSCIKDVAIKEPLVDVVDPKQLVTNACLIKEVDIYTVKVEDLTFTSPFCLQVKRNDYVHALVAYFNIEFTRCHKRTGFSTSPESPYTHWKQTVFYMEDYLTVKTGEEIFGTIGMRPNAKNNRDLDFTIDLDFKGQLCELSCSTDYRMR
Description for PC-9 cells: The control groups were treated with the same volume of DMSO.
Excerpt for recombinant PRMT1: Three-point IC50 curves may provide an estimation, but certainly not an accurate calculation (data is not shown).

Consider `C=CS(=O)(=O)CC` [EVS, ethyl vinyl sulfone], for which the PVS modification result in test [1] (HeLa cells pretreated at 100 μM and 1 mM for 30 min, then 100 μM PVS 1 h) was “significantly attenuated”.

Turning to `O=C1C(SCCO)=C(SCCO)C(=O)c2ccccc21` [NSC 95397], the “blocking of PVS tagging, comparison” value in test [1] (in vitro and in cellulo) is “blocked PVS tagging better than BVT 948”.

pervanadate: the “tagging of PVS” value is recorded as “almost completely blocked” in test [1] (HeLa cell lysate, 1 mM together with 100 μM PVS) and “completely blocked” in test [1] (HeLa cells pretreated with 1 mM for 30 min).

As to `Nc1ccn([C@@H]2O[C@H](CO)[C@@H](O)C2(F)F)c(=O)n1` [gemcitabine], the afatinib labeling result in the test with recombinant RRM1 or RRM2 is recorded as “almost completely blocked”.

Broadly, the pIC50 is the negative decadic logarithm of the IC50, by convention in mol/L. Take `C=CS(=O)(=O)Oc1ccccc1` [PVSN, phenyl vinyl sulfonate]: in test [2] (read-out: inhibited the activity of glutathione reductase by), the inhibition at 50 µM was found to be 61%. Further, the “levels of phosphotyrosine modification” value in the test on PTPs in HeLa cells is “increased”. For the same compound, the “levels of protein ADMA in cell culture” value in test [3] was “decreased the levels of protein ADMA slightly”. At recombinant PRMT1, the “concentration that caused significant inhibition of methylation of histone H4” value worked out at 5 µM and the negative logarithm of the IC50 (pIC50) is 4.98.

Regarding `O=C(Nc1ccc2c(O)cc(S(=O)(=O)O)cc2c1)Nc1ccc2c(O)cc(S(=O)(=O)O)cc2c1` [AMI-1], the “levels of protein ADMA in cell culture” value in test [3] is listed as “little effect”.

Take `Cc1ccc(S(=O)(=O)/C=C/C#N)cc1` [Bay 11-7082]: the “inhibited the activity of glutathione reductase by” value in test [2] (at 50 μM) was 74%. Also, in the test with PTPs in HeLa cells, the “levels of phosphotyrosine modification” value is given as “increased”. Moreover, in test [3] (3 h), the “levels in ADMA of 25 and 35 kDa” value is “led to decline”. In addition, on recombinant PRMT1, the “concentration that caused significant inhibition of methylation of histone H4” value turned out to be 2.5 µM and the pIC50 was 4.97.

`C=CS(=O)(=O)c1ccccc1` [PVS, Phenyl vinyl sulfone]: the “levels of protein ADMA in cell culture” value in test [3] is listed as “did not change”. Moreover, at recombinant PRMT1, the “concentration that caused significant inhibition of methylation of histone H4” value worked out at 10 µM and the pIC50 was 4.63.

Take `CN(C)C/C=C/C(=O)Nc1cc2c(Nc3ccc(F)c(Cl)c3)ncnc2cc1O[C@H]1CCOC1` [afatinib]: in the test with PC-9 cells, the “concentration at which labeling signals were readily observed” value stood at 1 µM.
